The target of the assay is T1, HDAC6 enzyme (Homo sapiens, UniProt Q9UBN7).
T1 construct: transducing full length HDAC6 gene into Sf-9 insect cells; GST; purchased SignalChem; host or cells: Sf-9 insect cells
T1 sequence (Q9UBN7 1-1215): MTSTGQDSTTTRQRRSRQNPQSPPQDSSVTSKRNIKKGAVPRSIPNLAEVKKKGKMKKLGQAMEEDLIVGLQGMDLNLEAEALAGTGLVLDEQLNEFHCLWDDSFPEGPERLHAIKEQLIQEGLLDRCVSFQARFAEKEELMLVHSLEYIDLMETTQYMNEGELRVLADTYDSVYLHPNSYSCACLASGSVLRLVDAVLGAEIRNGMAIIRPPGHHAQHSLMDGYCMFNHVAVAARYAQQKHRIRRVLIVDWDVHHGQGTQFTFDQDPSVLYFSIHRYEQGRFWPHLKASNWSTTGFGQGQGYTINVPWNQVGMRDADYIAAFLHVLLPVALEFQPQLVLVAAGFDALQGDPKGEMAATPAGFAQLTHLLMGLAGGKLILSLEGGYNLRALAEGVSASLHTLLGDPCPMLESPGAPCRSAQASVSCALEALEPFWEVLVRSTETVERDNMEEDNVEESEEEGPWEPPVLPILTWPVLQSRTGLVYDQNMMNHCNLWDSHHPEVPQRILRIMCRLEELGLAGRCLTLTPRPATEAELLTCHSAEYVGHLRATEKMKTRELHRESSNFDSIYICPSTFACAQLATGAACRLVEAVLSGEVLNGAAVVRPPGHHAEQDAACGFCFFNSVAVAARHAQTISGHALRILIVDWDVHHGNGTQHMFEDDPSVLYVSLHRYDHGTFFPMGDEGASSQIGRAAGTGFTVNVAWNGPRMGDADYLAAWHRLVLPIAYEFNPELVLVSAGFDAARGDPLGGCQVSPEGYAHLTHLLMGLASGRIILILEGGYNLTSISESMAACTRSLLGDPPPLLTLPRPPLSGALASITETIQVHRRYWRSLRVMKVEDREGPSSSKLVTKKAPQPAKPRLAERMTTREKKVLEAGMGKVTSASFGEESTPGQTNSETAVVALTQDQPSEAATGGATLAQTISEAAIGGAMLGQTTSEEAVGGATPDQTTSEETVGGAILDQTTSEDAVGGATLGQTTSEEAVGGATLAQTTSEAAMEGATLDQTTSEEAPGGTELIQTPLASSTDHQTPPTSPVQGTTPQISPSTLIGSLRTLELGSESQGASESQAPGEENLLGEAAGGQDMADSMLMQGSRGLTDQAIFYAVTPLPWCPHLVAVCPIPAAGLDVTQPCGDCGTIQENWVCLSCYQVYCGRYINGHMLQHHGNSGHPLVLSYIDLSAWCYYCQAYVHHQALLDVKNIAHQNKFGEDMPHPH
Kind of assay: HDAC6 enzyme inhibitory activity (HDAC-Glo I/II Assay kit). Type of assay: biochemical. Particulars: 10 μM; wells without enzyme = 100% inhibition; read-out: HDAC6 inhibitory rate (%) (10 μM). A digest of the protocol:
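Sf-9-derived GST-purified full-length HDAC6 + cpd, 60 min RT, 24 mM Tris pH 7.5/0.6 mM glutathione/0.01% Tween-20; add HDAC-Glo substrate-developer, 20 min RT; luminescence. No-enzyme = 100% inhibition.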
Take `CC(C)OC(=O)N1CCCC[C@@H]1CN1Cc2ccc(-c3nnc(C(F)F)o3)cc2C1=O` [Example 43, isopropyl (2R)-2-((6-(5-(difluoromethyl)-1,3,4-oxadiazol-2-yl)-1-oxo-1,3-dihydro-2H-isoindol-2-yl)methyl)piperidine-1-carboxylate]: the inhibition at 10 µM was found to be 96%.
As for `O=C1c2cc(-c3nnc(C(F)F)o3)ccc2CN1C[C@H]1COCCN1S(=O)(=O)C1CC1` [Example 44, 2-(((3S)-4-(cyclopropylsulfonyl)morpholin-3-yl)methyl)-6-(5-(difluoromethyl)-1,3,4-oxadiazol-2-yl)isoindolin-1-one], the inhibition at 10 µM is 100%.
For the compound `O=C1c2cc(-c3nnc(C(F)F)o3)ccc2CN1C[C@H]1COCCN1C(=O)C1CC1` [Example 45, 2-(((3S)-4-(cyclopropylcarbonyl)morpholin-3-yl)methyl)-6-(5-(difluoromethyl)-1,3,4-oxadiazol-2-yl)isoindolin-1-one], the inhibition at 10 µM was 99%.
`CC(C)OC(=O)N1CCOC[C@@H]1CN1Cc2ccc(-c3nnc(C(F)F)o3)cc2C1=O` [Example 46, isopropyl (3S)-3-((6-(5-(difluoromethyl)-1,3,4-oxadiazol-2-yl)-1-oxo-1,3-dihydro-2H-isoindol-2-yl)methyl)morpholine-4-carboxylate]: the inhibition at 10 µM is 97%.
`O=C1c2cc(-c3nnc(C(F)F)o3)ccc2CN1C[C@H]1COCCN1C(=O)C1CCCC1` [Example 47]: the inhibition at 10 µM is 99%.
With `COC(=O)N1CCOC[C@@H]1CN1Cc2ccc(-c3nnc(C(F)F)o3)cc2C1=O` [Example 48, methyl (3S)-3-((6-(5-(difluoromethyl)-1,3,4-oxadiazol-2-yl)-1-oxo-1,3-dihydro-2H-isoindol-2-yl)methyl)morpholine-4-carboxylate], the inhibition at 10 µM was 98%.
Then `Cc1ccc(S(=O)(=O)N2CCOC[C@@H]2CN2Cc3ccc(-c4nnc(C(F)F)o4)cc3C2=O)cc1` [Example 49, 6-(5-(difluoromethyl)-1,3,4-oxadiazol-2-yl)-2-(((3S)-4-((4-methylphenyl)sulfonyl)morpholin-3-yl)methyl)isoindolin-1-one], with 99%; and `CCCC(=O)N[C@@H]1CCCC[C@H]1N1Cc2ccc(-c3nnc(C(F)F)o3)cc2C1=O` [Example 50, N-((1R,2R)-2-(6-(5-(difluoromethyl)-1,3,4-oxadiazol-2-yl)-1-oxo-1,3-dihydro-2H-isoindol-2-yl)cyclohexyl)butanamide], with 101%; and `CCCCCC(=O)N[C@@H]1CCCC[C@H]1N1Cc2ccc(-c3nnc(C(F)F)o3)cc2C1=O` [Example 51, N-((1R,2R)-2-(6-(5-(difluoromethyl)-1,3,4-oxadiazol-2-yl)-1-oxo-1,3-dihydro-2H-isoindol-2-yl)cyclohexyl)hexanamide], with 99%.
Regarding `CCOC(=O)N[C@@H]1CCCC[C@H]1N1Cc2ccc(-c3nnc(C(F)F)o3)cc2C1=O` [Example 52, ethyl ((1R,2R)-2-(6-(5-(difluoromethyl)-1,3,4-oxadiazol-2-yl)-1-oxo-1,3-dihydro-2H-isoindol-2-yl)cyclohexyl)carbamate], the inhibition at 10 µM was 96%.
The same measure for `O=C1c2cc(-c3nnc(C(F)F)o3)ccc2CN1[C@@H]1CCCC[C@H]1N1CCC2(CC2)C1=O` [Example 53, 6-(5-(difluoromethyl)-1,3,4-oxadiazol-2-yl)-2-((1R,2R)-2-(4-oxo-5-azaspiro[2.4]hept-5-yl)cyclohexyl)isoindolin-1-one]: 98%; for `CCc1cc(CC)n([C@@H]2CCCC[C@H]2N2Cc3ccc(-c4nnc(C(F)F)o4)cc3C2=O)n1` [Example 54, 2-((1R,2R)-2-(3,5-diethyl-1H-pyrazol-1-yl)cyclohexyl)-6-(5-(difluoromethyl)-1,3,4-oxadiazol-2-yl)isoindolin-1-one]: 98%.
`O=C1c2cc(-c3nnc(C(F)F)o3)ccc2CN1[C@@H]1CCCC[C@H]1n1cc2ccccc2n1` [Example 55, 6-(5-(difluoromethyl)-1,3,4-oxadiazol-2-yl)-2-((1R,2R)-2-(2H-indazol-2-yl)cyclohexyl)isoindolin-1-one]: the inhibition at 10 µM was 101%.
As to `O=C1c2cc(-c3nnc(C(F)F)o3)ccc2CN1CC1CC1` [Example 56, 2-(cyclopropylmethyl)-6-(5-(difluoromethyl)-1,3,4-oxadiazol-2-yl)isoindolin-1-one], the inhibition at 10 µM stood at 92%.
As for `O=C1c2cc(-c3nnc(C(F)F)o3)ccc2CN1Cc1ccccc1` [Example 58, 2-benzyl-6-(5-(difluoromethyl)-1,3,4-oxadiazol-2-yl)isoindolin-1-one], the inhibition at 10 µM was 98%.
For the compound `O=C1c2cc(-c3nnc(C(F)F)o3)ccc2CN1Cc1ccc(C(F)(F)F)cc1` [Example 59, 6-(5-(difluoromethyl)-1,3,4-oxadiazol-2-yl)-2-(4-(trifluoromethyl)benzyl)isoindolin-1-one], the inhibition at 10 µM was determined as 94%.
The same measure for `O=C1c2cc(-c3nnc(C(F)F)o3)ccc2CN1Cc1ccccn1` [Example 60, 6-(5-(difluoromethyl)-1,3,4-oxadiazol-2-yl)-2-(pyridin-2-ylmethyl)isoindolin-1-one]: 96%.
The same measure for `Cc1cc(C)n([C@@H]2CCCC[C@H]2N2Cc3ccc(-c4nnc(C(F)F)o4)cc3C2=O)n1` [Example 61, 6-(5-(difluoromethyl)-1,3,4-oxadiazol-2-yl)-2-((1R,2R)-2-(3,5-dimethyl-1H-pyrazol-1-yl)cyclohexyl)isoindolin-1-one]: 99%.
For the compound `CC(C)(C)OC(=O)N[C@@H]1CCCC[C@H]1N1Cc2ncc(-c3nnc(C(F)F)o3)cc2C1=O` [Example 62, tert-butyl ((1R,2R)-2-(3-(5-(difluoromethyl)-1,3,4-oxadiazol-2-yl)-5-oxo-5,7-dihydro-6H-pyrrolo[3,4-b]pyridin-6-yl)cyclohexyl)carbamate], the inhibition at 10 µM is 99%.
The same measure for `O=C(CC1CC1)N[C@@H]1CCCC[C@H]1N1Cc2ccc(-c3nnc(C(F)F)o3)cc2C1=O` [Example 63, 2-cyclopropyl-N-((1R,2R)-2-(6-(5-(difluoromethyl)-1,3,4-oxadiazol-2-yl)-1-oxo-1,3-dihydro-2H-isoindol-2-yl)cyclohexyl)acetamide]: 99%.
Consider `O=C(CCC(F)F)N[C@@H]1CCCC[C@H]1N1Cc2ccc(-c3nnc(C(F)F)o3)cc2C1=O` [Example 64, N-((1R,2R)-2-(6-(5-(difluoromethyl)-1,3,4-oxadiazol-2-yl)-1-oxo-1,3-dihydro-2H-isoindol-2-yl)cyclohexyl)-4,4-difluorobutanamide], for which the inhibition at 10 µM came out at 100%.
Consider `O=C(CCC(F)(F)F)N[C@@H]1CCCC[C@H]1N1Cc2ccc(-c3nnc(C(F)F)o3)cc2C1=O` [Example 65, N-((1R,2R)-2-(6-(5-(difluoromethyl)-1,3,4-oxadiazol-2-yl)-1-oxo-1,3-dihydro-2H-isoindol-2-yl)cyclohexyl)-4,4,4-trifluorobutanamide], for which the inhibition at 10 µM turned out to be 100%.
`CC(F)C(=O)N[C@@H]1CCCC[C@H]1N1Cc2ccc(-c3nnc(C(F)F)o3)cc2C1=O` (stereo partly drawn) [Example 66, N-((1R,2R)-2-(6-(5-(difluoromethyl)-1,3,4-oxadiazol-2-yl)-1-oxo-1,3-dihydro-2H-isoindol-2-yl)cyclohexyl)-2-fluoropropanamide]: the inhibition at 10 µM was 101%.

The values above are taken from patent US10435399B2, “HDAC6 inhibitory heterocyclic compound” (TAKEDA PHARMACEUTICAL COMPANY LIMITED, priority 2017, dated 2019).
